*1 amine or outer side, *2 acyl side, *3 side chain or, on linkers, in order; H or OH if unused. Where a SMILES comes first, the peptide text is derived from it. Bridges are numbered along the chain shown (N, C = ends). [ ]: non-standard residue; d: D form. The star is where a group is joined. C20 diacid = O=C(O)CCCCCCCCCCCCCCCCCCC(=O)*; γGlu = O=C(O)[C@H](CCC(=O)[*:2])N[*:1]; Hyp = O=C(O)[C@@H]1C[C@@H](O)CN1; NMeI = CC[C@H](C)[C@H](NC)C(=O)O; Aad = N[C@@H](CCCC(=O)O)C(=O)O; Sar = CNCC(=O)O
Assays:
[1] = target: T1, human calcitonin receptor (hCTR2) (Homo sapiens, UniProt P30988); assay: hCTR2 cAMP assay (AlphaScreen) in COS7 cells; type: cell-based; conditions: cAMP induction, COS7 cells expressing hCTR2; Table 1; read-out: hCTR2 EC50
T1 construct: expressed in transfected cells
T1 sequence (P30988 25-474): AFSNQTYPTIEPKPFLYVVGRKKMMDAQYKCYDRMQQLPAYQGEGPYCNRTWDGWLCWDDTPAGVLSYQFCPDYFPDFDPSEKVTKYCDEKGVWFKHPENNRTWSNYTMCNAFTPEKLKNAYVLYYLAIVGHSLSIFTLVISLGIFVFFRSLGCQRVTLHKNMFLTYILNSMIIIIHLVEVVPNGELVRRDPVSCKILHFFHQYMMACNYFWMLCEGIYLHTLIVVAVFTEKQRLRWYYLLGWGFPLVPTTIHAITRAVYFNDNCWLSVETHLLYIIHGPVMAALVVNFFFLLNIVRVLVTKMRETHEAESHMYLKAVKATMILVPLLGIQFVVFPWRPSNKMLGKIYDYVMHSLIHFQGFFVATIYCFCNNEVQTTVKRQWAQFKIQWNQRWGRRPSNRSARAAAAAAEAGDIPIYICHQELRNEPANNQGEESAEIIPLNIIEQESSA
In short: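 Stable hCTR2 clone in RAMP-naïve COS7 cells stimulated 15 min at 37 °C with increasing peptide concentrations in Tyrode buffer pH 7.4 containing IBMX and 0.1% casein. cAMP in lysates measured by AlphaScreen; EC50 from 4-parameter logistic fit.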

[2] = target: T2, human amylin receptor 3 (hAMYR3), hCTR2 co-expressed with hRAMP3 (Homo sapiens, UniProt O60896+P30988); assay: hAMYR3 cAMP assay (AlphaScreen) in COS7 cells; type: cell-based; conditions: cAMP induction, COS7 cells expressing hAMYR3; Table 1; read-out: hAMYR3 EC50
T2 construct: expressed in transfected cells
T2 sequence (P30988 25-474): T1 sequence (P30988 25-474)
T2 sequence (O60896 24-148 partner): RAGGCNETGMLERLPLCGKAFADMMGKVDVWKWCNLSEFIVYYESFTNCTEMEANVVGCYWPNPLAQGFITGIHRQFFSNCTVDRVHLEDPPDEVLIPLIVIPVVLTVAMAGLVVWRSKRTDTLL
In short: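 Stable COS7 clone co-expressing hCTR2 and hRAMP3 was exposed to increasing peptide concentrations in Tyrode buffer (pH 7.4) with 100 µM IBMX and 0.1% casein for 15 min at 37 °C. Lysate cAMP was measured by AlphaScreen; EC50 came from 4-parameter logistic fitting.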

[3] = Assessment of physical stability (Thioflavin T fibrillation); type: physicochemical; parameters: key: FND = fibrillation not detected; FD = fibrillation detected; conditions: 1 mg/ml, 40° C., ThT; for Fibrillation pH 4.0 (Ac): 50 mM acetate buffer pH 4.0, 96 hours; for Fibrillation pH 7.0 (His): 50 mM histidine buffer pH 7.0, 96 hours; for Fibrillation pH 7.0 (Phos.): 50 mM phosphate buffer pH 7.0, 96 hours
In short: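 1 mg/ml peptide with 40 μM ThT in 50 mM phosphate pH 7.0, 50 mM histidine pH 7.0 or 50 mM acetate pH 4.0, in triplicate. Fluorescence read every 10 min after 300 s agitation over 96 h at 40 °C. Lag-time (h) is the intersection of linear fits to stable and growth phases.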

[4] = Assessment of chemical stability (RP-HPLC normalized purity); type: physicochemical; conditions: for Normalized purity after 7 days, 40° C., pH 4: pH 4, 0.2 mg/ml; for Normalized purity after 7 days, 40° C., pH 4 / Normalized purity after 7 days, 40° C., pH 6 / Normalized purity after 7 days, 40° C., pH 7.5 / Normalized purity after 7 days, 40° C., pH 9: Table 1; for Normalized purity after 7 days, 40° C., pH 6: pH 6, 0.2 mg/ml; for Normalized purity after 7 days, 40° C., pH 7.5: pH 7.5, 0.2 mg/ml; for Normalized purity after 7 days, 40° C., pH 9: pH 9, 0.2 mg/ml
In short: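 Peptides at 0.2 mg/ml in water adjusted to pH 4, 6, 7.5 or 9, incubated at 40° C for 7 days. Main-peak area-% by RP-HPLC (C8 ammonium formate or C18 TFA gradient, UV 220 nm), normalized to T=0 as 100.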

| Structure (SMILES) | EC50 [1] | EC50 [2] | Fibrillation pH 4.0 (Ac) [3] | Fibrillation pH 7.0 (His) [3] | Fibrillation pH 7.0 (Phos.) [3] | Normalized purity after 7 days, 40° C., pH 4 [4] | Normalized purity after 7 days, 40° C., pH 6 [4] | Normalized purity after 7 days, 40° C., pH 7.5 [4] | Normalized purity after 7 days, 40° C., pH 9 [4] | Normalized purity pH 4 (Table 5) ([4]; pH 4, repeat of Example 6 for pairs with/without Asn-Asn at 21-22) | Normalized purity pH 6 (Table 5) ([4]; pH 6, repeat of Example 6 for pairs with/without Asn-Asn at 21-22) | Normalized purity pH 7.5 (Table 5) ([4]; pH 7.5, repeat of Example 6 for pairs with/without Asn-Asn at 21-22) | Normalized purity pH 9 (Table 5) ([4]; pH 9, repeat of Example 6 for pairs with/without Asn-Asn at 21-22) |
| --- | --- | --- | --- | --- | --- | --- | --- | --- | --- | --- | --- | --- | --- |
| CC[C@H](C)[C@@H](C(=O)N[C@@H](CC(C)C)C(=O)N[C@@H](CO)C(=O)N[C@@H](CO)C(=O)N[C@H](C(=O)N[C@@H](CCC(=O)O)C(=O)N[C@H](C(=O)NCC(=O)N[C@@H](CO)C(=O)N[C@@H](CC(=O)O)C(=O)N[C@H](C(=O)N1C[C@H](O)C[C@H]1C(N)=O)[C@@H](C)O)C(C)C)[C@@H](C)O)N(C)C(=O)[C@H](C)NC(=O)CN(C)C(=O)[C@H](Cc1ccccc1)NC(=O)[C@H](CO)NC(=O)[C@H](CO)NC(=O)[C@H](CCCNC(=N)N)NC(=O)[C@H](CCC(N)=O)NC(=O)[C@H](CC(C)C)NC(=O)[C@H](Cc1ccccc1)NC(=O)[C@H](Cc1c[nH]cn1)NC(=O)[C@H](C)NC(=O)[C@H](CC(C)C)NC(=O)[C@H](CCCNC(=N)N)NC(=O)[C@H](CCC(=O)O)NC(=O)[C@@H](NC(=O)[C@H](C)NC(=O)[C@@H]1CSSC[C@H](NC(=O)[C@H](CCCNC(=N)N)NC(=O)CC[C@H](NC(=O)CCCCCCCCCCCCCCCCCCC(=O)O)C(=O)O)C(=O)N[C@@H](CC(N)=O)C(=O)N[C@@H]([C@@H](C)O)C(=O)N[C@@H](C)C(=O)N[C@@H]([C@@H](C)O)C(=O)N1)[C@@H](C)O [Compound 60, [19CD]-isoGlu-R-C( )-NTAT-C( )-ATERLAHFLQRSSF-Gly(Me)-A-Ile(Me)-LSSTEVGSDT-Hyp-NH2] ({C20 diacid-γGlu}-RCNTATCATERLAHFLQRSSF[Sar]A[NMeI]LSSTEVGSDT[Hyp]-NH2; disulfide 2-7) | 0.08 nM | 0.09 nM | FND | FND | FND | A (A = >90%) | A (A = >90%) | A (A = >90%) | B (B = 70-90%) |  |  |  |  |
| CC[C@H](C)[C@@H](C(=O)N[C@@H](CC(C)C)C(=O)N[C@@H](CO)C(=O)N[C@@H](CO)C(=O)N[C@H](C(=O)N[C@@H](CCC(=O)O)C(=O)N[C@H](C(=O)NCC(=O)N[C@@H](CO)C(=O)NCC(=O)N[C@H](C(=O)N1C[C@H](O)C[C@H]1C(N)=O)[C@@H](C)O)C(C)C)[C@@H](C)O)N(C)C(=O)[C@H](C)NC(=O)CN(C)C(=O)[C@H](Cc1ccccc1)NC(=O)[C@H](CCCNC(=N)N)NC(=O)[C@H](CCC(N)=O)NC(=O)[C@H](CC(C)C)NC(=O)[C@H](Cc1ccccc1)NC(=O)[C@H](Cc1c[nH]cn1)NC(=O)[C@H](C)NC(=O)[C@H](CC(C)C)NC(=O)[C@H](CCCNC(=N)N)NC(=O)[C@H](CCC(N)=O)NC(=O)[C@@H](NC(=O)[C@H](C)NC(=O)[C@@H]1CSSC[C@H](NC(=O)[C@H](CCCNC(=N)N)NC(=O)CC[C@H](NC(=O)CCCCCCCCCCCCCCCCCCC(=O)O)C(=O)O)C(=O)N[C@@H](CC(N)=O)C(=O)N[C@@H]([C@@H](C)O)C(=O)N[C@@H](C)C(=O)N[C@@H]([C@@H](C)O)C(=O)N1)[C@@H](C)O [Compound 79, [19CD]-isoGlu-R-C( )-NTAT-C( )-ATQRLAHFLQRF-Gly(Me)-A-Ile(Me)-LSSTEVGSGT-Hyp-NH2] ({C20 diacid-γGlu}-RCNTATCATQRLAHFLQRF[Sar]A[NMeI]LSSTEVGSGT[Hyp]-NH2; disulfide 2-7) | 0.12 nM | 0.23 nM | FND | FD | FD | A (A = >90%) | A (A = >90%) | B (B = 70-90%) | B (B = 70-90%) |  |  |  |  |
| CC[C@H](C)[C@@H](C(=O)N[C@@H](CC(C)C)C(=O)N[C@@H](CO)C(=O)N[C@@H](CO)C(=O)N[C@H](C(=O)N[C@@H](CCC(=O)O)C(=O)N[C@H](C(=O)NCC(=O)N[C@@H](CO)C(=O)N[C@@H](CC(N)=O)C(=O)N[C@H](C(=O)N1C[C@H](O)C[C@H]1C(N)=O)[C@@H](C)O)C(C)C)[C@@H](C)O)N(C)C(=O)[C@H](C)NC(=O)CN(C)C(=O)[C@H](Cc1ccccc1)NC(=O)[C@H](CO)NC(=O)[C@H](CO)NC(=O)[C@H](CCCNC(=N)N)NC(=O)[C@H](CCC(N)=O)NC(=O)[C@H](CC(C)C)NC(=O)[C@H](Cc1ccccc1)NC(=O)[C@H](CCCC(=O)O)NC(=O)[C@H](C)NC(=O)[C@H](CC(C)C)NC(=O)[C@H](CCCNC(=N)N)NC(=O)[C@H](CC(=O)O)NC(=O)[C@@H](NC(=O)[C@H](C)NC(=O)[C@@H]1CSSC[C@H](NC(=O)[C@H](CCCNC(=N)N)NC(=O)CC[C@H](NC(=O)CCCCCCCCCCCCCCCCCCC(=O)O)C(=O)O)C(=O)N[C@@H](CCC(N)=O)C(=O)N[C@@H]([C@@H](C)O)C(=O)N[C@@H](C)C(=O)N[C@@H]([C@@H](C)O)C(=O)N1)[C@@H](C)O [Compound 89, [19CD]-isoGlu-R-C( )-QTAT-C( )-ATDRLA-Aad-FLQRSSF-Gly(Me)-A-Ile(Me)-LSSTEVGSNT-Hyp-NH2] ({C20 diacid-γGlu}-RCQTATCATDRLA[Aad]FLQRSSF[Sar]A[NMeI]LSSTEVGSNT[Hyp]-NH2; disulfide 2-7) | 0.16 nM | 0.2 nM | FND | FND | FND | A (A = >90%) | A (A = >90%) | A (A = >90%) | B (B = 70-90%) | A (A = >90%) | A (A = >90%) | A (A = >90%) | A (A = >90%) |
| CC[C@H](C)[C@@H](C(=O)N[C@@H](CC(C)C)C(=O)N[C@@H](CO)C(=O)N[C@@H](CO)C(=O)N[C@H](C(=O)N[C@@H](CCC(=O)O)C(=O)N[C@H](C(=O)NCC(=O)N[C@@H](CO)C(=O)NCC(=O)N[C@H](C(=O)N1C[C@H](O)C[C@H]1C(N)=O)[C@@H](C)O)C(C)C)[C@@H](C)O)N(C)C(=O)[C@H](C)NC(=O)CN(C)C(=O)[C@H](Cc1ccccc1)NC(=O)[C@H](CO)NC(=O)[C@H](CO)NC(=O)[C@H](CCCNC(=N)N)NC(=O)[C@H](CCC(N)=O)NC(=O)[C@H](CC(C)C)NC(=O)[C@H](Cc1ccccc1)NC(=O)[C@H](Cc1c[nH]cn1)NC(=O)[C@H](C)NC(=O)[C@H](CC(C)C)NC(=O)[C@H](CCCNC(=N)N)NC(=O)[C@H](CC(=O)O)NC(=O)[C@@H](NC(=O)[C@H](C)NC(=O)[C@@H]1CSSC[C@H](NC(=O)[C@H](CCCNC(=N)N)NC(=O)CC[C@H](NC(=O)CCCCCCCCCCCCCCCCCCC(=O)O)C(=O)O)C(=O)N[C@@H](CCC(N)=O)C(=O)N[C@@H]([C@@H](C)O)C(=O)N[C@@H](C)C(=O)N[C@@H]([C@@H](C)O)C(=O)N1)[C@@H](C)O [Compound 91, [19CD]-isoGlu-R-C( )-QTAT-C( )-ATDRLAHFLQRSSF-Gly(Me)-A-Ile(Me)-LSSTEVGSGT-Hyp-NH2] ({C20 diacid-γGlu}-RCQTATCATDRLAHFLQRSSF[Sar]A[NMeI]LSSTEVGSGT[Hyp]-NH2; disulfide 2-7) | 0.08 nM | 0.17 nM | FND | FND | FND | A (A = >90%) | A (A = >90%) | A (A = >90%) | A (A = >90%) |  |  |  |  |
